Data set [1] concerns the target T1, AT1G07040 (Arabidopsis thaliana, UniProt Q9LMJ7).
T1 construct: amplified from Arabidopsis cDNA, expressed in E. coli BL21 (DE3), Ni-NTA purified
T1 sequence (Q9LMJ7 51-371): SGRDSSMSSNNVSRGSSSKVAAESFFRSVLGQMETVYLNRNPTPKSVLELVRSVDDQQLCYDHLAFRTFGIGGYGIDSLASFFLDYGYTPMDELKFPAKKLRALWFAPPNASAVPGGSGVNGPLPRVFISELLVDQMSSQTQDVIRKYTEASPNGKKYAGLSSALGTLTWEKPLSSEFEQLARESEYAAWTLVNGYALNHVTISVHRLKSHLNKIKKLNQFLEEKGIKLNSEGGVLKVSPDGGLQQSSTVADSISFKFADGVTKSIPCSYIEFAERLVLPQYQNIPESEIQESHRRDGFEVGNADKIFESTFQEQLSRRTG
In words: in vitro assay, product by high resolution LC-MS. The format is biochemical. As to conditions: conversion to 2-hydroxyglutarate; N-terminal localization peptide removed.

For data set [2], the target named is T2, FLO7 (Oryza sativa, UniProt Q337M4).
T2 construct: E. coli codon-optimized gene, expressed in E. coli BL21 (DE3), Ni-NTA purified
T2 sequence (Q337M4 48-364 limits assumed): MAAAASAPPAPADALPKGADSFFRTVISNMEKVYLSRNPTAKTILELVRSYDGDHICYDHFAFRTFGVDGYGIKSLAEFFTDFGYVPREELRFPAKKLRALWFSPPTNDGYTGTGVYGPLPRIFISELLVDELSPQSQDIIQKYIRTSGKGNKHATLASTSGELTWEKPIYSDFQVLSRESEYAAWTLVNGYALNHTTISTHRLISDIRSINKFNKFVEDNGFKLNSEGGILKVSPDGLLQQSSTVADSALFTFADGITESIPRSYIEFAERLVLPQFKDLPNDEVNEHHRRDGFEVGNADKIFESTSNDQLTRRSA
Description: X-ray crystal structure at […] Å, soaked crystals. The class given is binding. As to conditions: active-site Ni(II); Arg64 binds the substrate.

The target of data set [3] is T3, HglS (Pseudomonas putida, UniProt Q88CC1).
T3 construct: recombinant in E. coli BL21 (DE3), Ni-NTA purified; crystals contain mainly active-site Ni(II); activity with Fe(II)
T3 sequence (Q88CC1 1-464): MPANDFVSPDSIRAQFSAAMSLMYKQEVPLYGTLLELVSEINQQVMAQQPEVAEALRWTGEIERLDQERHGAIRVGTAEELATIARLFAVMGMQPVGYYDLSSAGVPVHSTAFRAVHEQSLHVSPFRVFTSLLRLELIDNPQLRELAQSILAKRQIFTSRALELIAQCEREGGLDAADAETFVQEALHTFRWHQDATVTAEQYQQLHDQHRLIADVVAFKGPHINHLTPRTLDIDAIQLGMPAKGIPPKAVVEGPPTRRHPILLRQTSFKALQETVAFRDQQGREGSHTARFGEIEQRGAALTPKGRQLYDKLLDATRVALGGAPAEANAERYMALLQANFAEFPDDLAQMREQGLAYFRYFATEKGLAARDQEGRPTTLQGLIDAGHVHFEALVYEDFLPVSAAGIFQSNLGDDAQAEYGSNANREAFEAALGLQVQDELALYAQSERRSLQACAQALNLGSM
In words: X-ray crystal structure, soaked crystals. As to conditions: active-site Ni(II) (noncatalytic); 2OA carboxylate and alpha-keto group coordinate the metal, Arg74 salt bridge. The class given is binding.

The target of data set [4] is T4, YdcJ (Escherichia coli, UniProt P76097).
T4 construct: recombinant in E. coli BL21 (DE3), Ni-NTA purified
T4 sequence (P76097 1-447): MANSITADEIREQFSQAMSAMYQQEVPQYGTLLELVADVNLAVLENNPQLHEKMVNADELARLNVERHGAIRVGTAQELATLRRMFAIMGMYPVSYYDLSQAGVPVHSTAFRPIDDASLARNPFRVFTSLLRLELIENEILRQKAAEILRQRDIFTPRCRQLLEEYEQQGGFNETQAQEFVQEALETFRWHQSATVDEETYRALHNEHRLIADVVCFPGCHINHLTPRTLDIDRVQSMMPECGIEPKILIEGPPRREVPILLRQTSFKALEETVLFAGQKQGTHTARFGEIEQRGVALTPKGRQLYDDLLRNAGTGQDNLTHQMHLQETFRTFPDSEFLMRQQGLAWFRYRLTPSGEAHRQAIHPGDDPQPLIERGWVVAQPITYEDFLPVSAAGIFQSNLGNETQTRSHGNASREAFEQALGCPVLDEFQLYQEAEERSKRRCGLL
Description: in vitro assay, product by high resolution LC-MS. The format is biochemical. Conditions: conversion to 2-hydroxyglutarate.

Substrate in data set [5]: O=C(O)CCCC(=O)C(=O)O
Description: initial rates of O2 consumption, Clark-type electrode. The class given is biochemical, Pseudomonas putida. Conditions: 10 µM FeSO4, 100 mM Tris pH 7.0, room temperature, 240 µM O2, 10-200 µM 2OA, 100 nM enzyme. The source says:
initial rates of O2 consumption, Clark-type electrode on HglS | kinetic parameters determined by monitoring oxygen consumption were similar to those we previously reported

Substrate in data set [6]: O=C(O)CCCC(=O)C(=O)O
Description: steady-state kinetics of purified enzyme. The format is biochemical, Oryza sativa. As to conditions: Fe(II)- and O2-dependent; N-terminal localization peptide removed.

For `O=C(O)CCCC(=O)C(=O)O` [2OA, 2-oxoadipate], the “in vitro assay, product by high resolution LC-MS” value is “plant homologs AT1G07040 and FLO7 catalyzed the conversion of 2OA” in data set [1]; “the E. coli homolog YdcJ and the plant homologs AT1G07040 and FLO7 catalyzed the conversion” in data set [4]. For the same molecule, the “X-ray crystal structure at 1.85 Å, soaked crystals” value in data set [2] is on record as “soaked with 2OA, producing diffraction data used to solve the substrate-bound crystal structure”. Also, the “X-ray crystal structure, soaked crystals” value in data set [3] is “soaked HglS crystals with 2OA and solved the structure of the resulting complex”.

B1: HglS (Pseudomonas putida KT2440) (protein)
chain: MPANDFVSPDSIRAQFSAAMSLMYKQEVPLYGTLLELVSEINQQVMAQQPEVAEALRWTGEIERLDQERHGAIRVGTAEELATIARLFAVMGMQPVGYYDLSSAGVPVHSTAFRAVHEQSLHVSPFRVFTSLLRLELIDNPQLRELAQSILAKRQIFTSRALELIAQCEREGGLDAADAETFVQEALHTFRWHQDATVTAEQYQQLHDQHRLIADVVAFKGPHINHLTPRTLDIDAIQLGMPAKGIPPKAVVEGPPTRRHPILLRQTSFKALQETVAFRDQQGREGSHTARFGEIEQRGAALTPKGRQLYDKLLDATRVALGGAPAEANAERYMALLQANFAEFPDDLAQMREQGLAYFRYFATEKGLAARDQEGRPTTLQGLIDAGHVHFEALVYEDFLPVSAAGIFQSNLGDDAQAEYGSNANREAFEAALGLQVQDELALYAQSERRSLQACAQALNLGSM
notes: recombinant in E. coli BL21 (DE3), Ni-NTA purified; crystals contain mainly active-site Ni(II); activity with Fe(II)
What is called Km is the concentration of substrate that gives half-maximal velocity. Take B1: in data set [5], the Michaelis constant (Km) is 0.01 mM.

B2: FLO7 (Oryza sativa Japonica Group) (protein)
chain: MAAAASAPPAPADALPKGADSFFRTVISNMEKVYLSRNPTAKTILELVRSYDGDHICYDHFAFRTFGVDGYGIKSLAEFFTDFGYVPREELRFPAKKLRALWFSPPTNDGYTGTGVYGPLPRIFISELLVDELSPQSQDIIQKYIRTSGKGNKHATLASTSGELTWEKPIYSDFQVLSRESEYAAWTLVNGYALNHTTISTHRLISDIRSINKFNKFVEDNGFKLNSEGGILKVSPDGLLQQSSTVADSALFTFADGITESIPRSYIEFAERLVLPQFKDLPNDEVNEHHRRDGFEVGNADKIFESTSNDQLTRRSA
notes: E. coli codon-optimized gene, expressed in E. coli BL21 (DE3), Ni-NTA purified
Take B2: in data set [6], the Km amounted to 0.55 mM.
